Data on 23 compounds can be found in patent publication US9790228B2, “Heterocyclic kinase inhibitors” (Intellikine LLC, priority 2008, dated 2017).

The structures appear in SMILES notation.

In general, IC50 refers to the concentration needed to halve the response being measured.

p110γ, sequence (P48736 whole entry): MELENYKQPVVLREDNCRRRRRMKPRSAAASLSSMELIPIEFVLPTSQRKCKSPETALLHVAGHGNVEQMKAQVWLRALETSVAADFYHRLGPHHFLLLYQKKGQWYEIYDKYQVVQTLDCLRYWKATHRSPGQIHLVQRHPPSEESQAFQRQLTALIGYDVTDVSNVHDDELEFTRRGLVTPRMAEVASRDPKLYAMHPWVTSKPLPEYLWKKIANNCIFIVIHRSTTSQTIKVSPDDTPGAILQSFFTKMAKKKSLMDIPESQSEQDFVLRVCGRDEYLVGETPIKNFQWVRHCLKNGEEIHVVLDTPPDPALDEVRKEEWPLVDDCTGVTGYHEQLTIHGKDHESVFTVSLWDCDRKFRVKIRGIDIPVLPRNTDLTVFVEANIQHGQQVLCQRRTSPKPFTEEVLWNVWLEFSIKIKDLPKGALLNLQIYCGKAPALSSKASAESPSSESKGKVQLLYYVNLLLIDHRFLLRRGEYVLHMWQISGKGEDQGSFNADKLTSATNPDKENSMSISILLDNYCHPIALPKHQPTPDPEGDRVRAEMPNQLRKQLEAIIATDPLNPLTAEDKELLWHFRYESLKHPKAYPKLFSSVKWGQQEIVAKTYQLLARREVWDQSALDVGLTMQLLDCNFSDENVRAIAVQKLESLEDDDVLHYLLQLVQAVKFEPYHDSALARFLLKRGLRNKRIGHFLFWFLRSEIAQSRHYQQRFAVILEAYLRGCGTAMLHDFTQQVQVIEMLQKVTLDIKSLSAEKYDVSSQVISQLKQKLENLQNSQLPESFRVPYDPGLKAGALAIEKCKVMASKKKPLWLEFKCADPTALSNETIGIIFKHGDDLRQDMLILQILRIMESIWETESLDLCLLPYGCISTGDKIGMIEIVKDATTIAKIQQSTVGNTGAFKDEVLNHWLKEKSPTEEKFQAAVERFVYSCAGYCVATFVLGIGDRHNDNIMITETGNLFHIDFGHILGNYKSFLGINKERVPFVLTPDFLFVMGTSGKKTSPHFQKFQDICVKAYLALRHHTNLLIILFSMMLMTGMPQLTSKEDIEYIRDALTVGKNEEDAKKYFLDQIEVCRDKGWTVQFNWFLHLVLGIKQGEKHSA
p110β/p85α, sequence (P42338 whole entry, looked up): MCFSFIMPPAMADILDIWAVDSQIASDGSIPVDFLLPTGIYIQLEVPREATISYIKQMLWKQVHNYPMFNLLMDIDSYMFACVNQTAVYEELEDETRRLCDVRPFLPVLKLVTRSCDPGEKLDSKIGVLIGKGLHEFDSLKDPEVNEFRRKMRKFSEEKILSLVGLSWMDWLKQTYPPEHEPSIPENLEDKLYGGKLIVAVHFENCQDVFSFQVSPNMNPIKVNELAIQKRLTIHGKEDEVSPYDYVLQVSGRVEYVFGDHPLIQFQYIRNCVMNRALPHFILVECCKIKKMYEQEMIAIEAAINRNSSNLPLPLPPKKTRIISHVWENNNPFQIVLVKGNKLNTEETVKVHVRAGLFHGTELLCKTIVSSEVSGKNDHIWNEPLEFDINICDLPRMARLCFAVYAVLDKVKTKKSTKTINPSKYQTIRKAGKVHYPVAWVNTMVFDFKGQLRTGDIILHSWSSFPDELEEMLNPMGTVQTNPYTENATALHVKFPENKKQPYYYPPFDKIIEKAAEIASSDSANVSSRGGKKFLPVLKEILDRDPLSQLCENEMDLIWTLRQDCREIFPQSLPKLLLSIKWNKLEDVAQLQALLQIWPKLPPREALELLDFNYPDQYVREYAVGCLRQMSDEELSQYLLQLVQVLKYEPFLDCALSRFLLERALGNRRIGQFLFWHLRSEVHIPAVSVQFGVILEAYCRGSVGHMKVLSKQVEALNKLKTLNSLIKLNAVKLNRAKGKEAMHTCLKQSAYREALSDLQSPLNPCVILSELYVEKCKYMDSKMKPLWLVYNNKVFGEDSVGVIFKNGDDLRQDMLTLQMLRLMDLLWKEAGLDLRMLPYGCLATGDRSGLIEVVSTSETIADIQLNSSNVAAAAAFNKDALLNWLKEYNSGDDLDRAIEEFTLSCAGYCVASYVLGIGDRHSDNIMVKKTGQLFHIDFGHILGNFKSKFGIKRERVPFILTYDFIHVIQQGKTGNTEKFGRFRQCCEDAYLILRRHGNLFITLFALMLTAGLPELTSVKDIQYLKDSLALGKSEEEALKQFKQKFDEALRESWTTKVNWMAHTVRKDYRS

The target in the first assay is p110δ/p85α (Homo sapiens (Human), UniProt O00329). The assay can be described thus: PI3K δ inhibition assay (TLC lipid kinase or HTRF).
p110δ/p85α, sequence (O00329 whole entry): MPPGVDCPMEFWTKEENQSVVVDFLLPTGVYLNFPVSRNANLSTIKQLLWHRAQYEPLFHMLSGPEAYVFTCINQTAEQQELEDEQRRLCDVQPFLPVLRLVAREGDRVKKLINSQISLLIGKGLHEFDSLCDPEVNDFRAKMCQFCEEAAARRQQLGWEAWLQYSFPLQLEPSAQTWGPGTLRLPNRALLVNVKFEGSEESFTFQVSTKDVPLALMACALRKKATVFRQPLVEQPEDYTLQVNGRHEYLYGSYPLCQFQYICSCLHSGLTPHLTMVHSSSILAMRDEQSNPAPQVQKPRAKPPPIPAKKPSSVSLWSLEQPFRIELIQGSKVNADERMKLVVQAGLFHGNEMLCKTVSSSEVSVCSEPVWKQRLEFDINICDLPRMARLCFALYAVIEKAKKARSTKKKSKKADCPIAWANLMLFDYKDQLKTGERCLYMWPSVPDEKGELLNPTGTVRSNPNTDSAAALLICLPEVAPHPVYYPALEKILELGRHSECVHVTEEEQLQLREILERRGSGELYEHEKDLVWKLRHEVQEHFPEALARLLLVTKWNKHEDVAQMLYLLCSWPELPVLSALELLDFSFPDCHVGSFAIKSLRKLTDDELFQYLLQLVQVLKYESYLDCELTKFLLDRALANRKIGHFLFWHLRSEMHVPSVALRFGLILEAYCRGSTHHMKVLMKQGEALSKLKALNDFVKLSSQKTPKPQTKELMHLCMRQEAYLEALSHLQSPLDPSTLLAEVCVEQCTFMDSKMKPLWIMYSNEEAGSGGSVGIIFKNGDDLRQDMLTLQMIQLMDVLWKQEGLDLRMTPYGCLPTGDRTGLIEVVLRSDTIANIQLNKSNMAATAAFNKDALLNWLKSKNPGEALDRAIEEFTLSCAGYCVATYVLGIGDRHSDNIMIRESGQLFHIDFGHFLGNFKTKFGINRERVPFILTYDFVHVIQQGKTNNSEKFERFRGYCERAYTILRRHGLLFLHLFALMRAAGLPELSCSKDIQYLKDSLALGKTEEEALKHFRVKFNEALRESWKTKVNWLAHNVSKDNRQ
p110δ/p85α, sequence (P27986 whole entry partner): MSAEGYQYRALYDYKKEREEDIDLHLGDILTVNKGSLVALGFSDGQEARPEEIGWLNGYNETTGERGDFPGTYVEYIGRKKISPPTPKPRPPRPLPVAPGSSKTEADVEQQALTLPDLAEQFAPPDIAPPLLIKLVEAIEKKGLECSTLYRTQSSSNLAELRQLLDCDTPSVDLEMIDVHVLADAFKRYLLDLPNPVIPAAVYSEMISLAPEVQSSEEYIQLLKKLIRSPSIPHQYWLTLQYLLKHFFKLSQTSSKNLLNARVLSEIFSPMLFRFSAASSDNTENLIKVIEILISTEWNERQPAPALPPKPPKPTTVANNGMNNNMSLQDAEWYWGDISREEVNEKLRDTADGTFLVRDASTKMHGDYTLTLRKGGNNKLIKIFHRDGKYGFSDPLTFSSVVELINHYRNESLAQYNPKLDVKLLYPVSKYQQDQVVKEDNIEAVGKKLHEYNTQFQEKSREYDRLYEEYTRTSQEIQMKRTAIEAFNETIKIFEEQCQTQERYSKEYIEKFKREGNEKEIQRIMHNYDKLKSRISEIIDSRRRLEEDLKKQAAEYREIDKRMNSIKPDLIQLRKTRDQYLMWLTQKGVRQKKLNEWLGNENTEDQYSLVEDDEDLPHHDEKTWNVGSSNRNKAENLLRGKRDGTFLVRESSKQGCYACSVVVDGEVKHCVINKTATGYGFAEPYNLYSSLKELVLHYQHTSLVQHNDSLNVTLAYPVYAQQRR
Settings: not given
In kind it is biochemical. As for the experimental part: (§1) Class I PI3-Ks can be either purchased (p110α/p85α, p110β/p85α, p110δ/p85α from Upstate, and p110γ from Sigma) or expressed as previously described (Knight et al., 2004). IC50 values are measured using either a standard TLC assay for lipid kinase activity (described below) or a high-throughput membrane capture assay. Kinase reactions are performed by preparing a reaction mixture containing kinase, inhibitor (2% DMSO final concentration), buffer (25 mM HEPES, pH 7.4, 10 mM MgCl2), and freshly sonicated phosphatidylinositol (100 μg/ml). Reactions are initiated by the addition of ATP containing 10 μCi of γ-32P-ATP to a final concentration 10 or 100 μM and allowed to proceed for 5 minutes at room temperature. For TLC analysis, reactions are then terminated by the addition of […] 1N HCl followed by 160 μl CHCl3:MeOH (1:1). The biphasic mixture is vortexed, briefly centrifuged, and the organic phase is transferred to a new tube using a gel loading pipette tip precoated with CHCl3. This extract is spotted on TLC plates and developed for 3-4 hours in a 65:35 solution of n-propanol:1M acetic acid. The TLC plates are then dried, exposed to a phosphorimager screen (Storm, Amersham), and quantitated. For each compound, kinase activity is measured at 10-12 inhibitor concentrations representing two-fold dilutions from the highest concentration tested (typically, 200 μM).
(§2) Other commercial kits or systems for assaying PI3-K activities are available. The commercially available kits or systems can be used to screen for inhibitors and/or agonists of PI3-Ks including but not limited to PI 3-Kinase α, β, δ, and γ. Anr exemplary system is PI3-Kinase (human) HTRF™ Assay from Upstate. […] Briefly, the assay is a time resolved FRET assay that indirectly measures PIP3 product formed by the activity of a PI3-K. The kinase reaction is performed in a microtitre plate (e.g., a 384 well microtitre plate). The total reaction volume is approximately 20 ul per well. In the first step, each well receives 2 ul of test compound in 20% dimethylsulphoxide resulting in a 2% DMSO final concentration. Next, approximately 14.5 ul of a kinase/PIP2 mixture (diluted in 1× reaction buffer) is added per well for a final concentration of 0.25-0.3 ug/ml kinase and 10 uM PIP2. The plate is sealed and incubated for 15 minutes at room temperature. To start the reaction, 3.5 ul of ATP (diluted in 1× reaction buffer) is added per well for a final concentration of 10 uM ATP. The plate is sealed and incubated for 1 hour at room temperature. The reaction is stopped by adding 5 ul of Stop Solution per well and then 5 ul of Detection Mix is added per well. The plate is sealed, incubated for 1 hour at room temperature, and then read on an appropriate plate reader. Data is analyzed and IC50s are generated using GraphPad Prism 5.
The compound `Nc1ncnc2c1c(-c1cccc(O)c1)nn2Cc1cccnc1N1CCCC1` [Compound 123] came in with an IC50 above 1000 nM.

`C[C@@H](O)C#Cc1nn(Cc2cc3ccccc3nc2N2CCN(C)CC2)c2ncnc(N)c12` [Compound 51] yielded an IC50 above 1000 nM.

Take `CCC(c1cc2ccccc2nc1N1CCCC1)n1cnc2c(N)ncnc21` (stereo not drawn) [Compound 36]: the concentration for half-maximal inhibition (IC50) is above 1000 nM.

`Nc1ncnc2c1c(I)nn2Cc1cc2c(nc1-c1ccccc1F)CCC2` [Compound 100] displayed an IC50 above 1000 nM.

For the compound `Nc1ncnc2c1c(-c1cccc3[nH]ncc13)nn2Cc1cc2ccccc2nc1N1CCCC1` [Compound 58], the IC50 was 100 to 1000 nM.

Compound `C[C@@H](O)C#Cc1nc2ccccc2nc1Cn1nc(C#C[C@@H](C)O)c2c(N)ncnc21` [Compound 103] had an IC50 above 1000 nM.

Turning to `Nc1ncnc2c1c(-c1ccnc(O)c1)nn2Cc1cc2ccccc2nc1-c1ccccc1` [Compound 178], the 50% inhibitory concentration (IC50) was above 1000 nM.

Consider `CN(C)c1ncccc1Cn1nc(-c2cc(O)cc(F)c2)c2c(N)ncnc21` [Compound 125], for which the IC50 was above 1000 nM.

`Nc1ncnc2c1c(-c1cc(F)ccc1O)nn2Cc1cc2ccccc2nc1N1CCCC1` [Compound 22] came in with an IC50 above 1000 nM.

`Nc1ncnc2c1c(-c1ccnc(O)c1)nn2Cc1cc2ccccc2nc1-c1ccccc1F` [Compound 177] registered an IC50 above 1000 nM.

Take `CN1CCN(c2nc3ccccc3cc2Cn2nc(I)c3c(N)ncnc32)CC1` [Compound 44]: the IC50 is 100 to 1000 nM.

In the case of `CC(c1cc2ccccc2nc1N1CCCC1)n1cnc2c(N)ncnc21` (stereo not drawn) [Compound 35], the IC50 is above 1000 nM.

`Nc1ncnc2c1c(-c1cccc(O)c1)nn2Cc1cc2c(nc1-c1ccccc1F)CCC2` [Compound 102] displayed a concentration for half-maximal inhibition (IC50) above 1000 nM.

`CC1CCCN1c1nc2ccccc2cc1Cn1ncc2c(N)ncnc21` (stereo not drawn) [Compound 188] returned an IC50 above 1000 nM.

With `CCC(Nc1ncnc2[nH]cnc12)c1cc2ccccc2nc1N1CCCC1` (stereo not drawn) [Compound 53], the IC50 was in the range of 100 to 1000 nM.

In the case of `COc1ccccc1-c1nc2ccccc2cc1Cn1nc(C#C[C@@H](C)O)c2c(N)ncnc21` [Compound 18], the IC50 is above 1000 nM.

The target of a further assay is p110α/p85α (Homo sapiens (Human), UniProt P42336). The assay can be described thus: PI3K α inhibition assay (TLC lipid kinase or HTRF). The assay is classed as biochemical.
p110α/p85α, sequence (P42336 whole entry): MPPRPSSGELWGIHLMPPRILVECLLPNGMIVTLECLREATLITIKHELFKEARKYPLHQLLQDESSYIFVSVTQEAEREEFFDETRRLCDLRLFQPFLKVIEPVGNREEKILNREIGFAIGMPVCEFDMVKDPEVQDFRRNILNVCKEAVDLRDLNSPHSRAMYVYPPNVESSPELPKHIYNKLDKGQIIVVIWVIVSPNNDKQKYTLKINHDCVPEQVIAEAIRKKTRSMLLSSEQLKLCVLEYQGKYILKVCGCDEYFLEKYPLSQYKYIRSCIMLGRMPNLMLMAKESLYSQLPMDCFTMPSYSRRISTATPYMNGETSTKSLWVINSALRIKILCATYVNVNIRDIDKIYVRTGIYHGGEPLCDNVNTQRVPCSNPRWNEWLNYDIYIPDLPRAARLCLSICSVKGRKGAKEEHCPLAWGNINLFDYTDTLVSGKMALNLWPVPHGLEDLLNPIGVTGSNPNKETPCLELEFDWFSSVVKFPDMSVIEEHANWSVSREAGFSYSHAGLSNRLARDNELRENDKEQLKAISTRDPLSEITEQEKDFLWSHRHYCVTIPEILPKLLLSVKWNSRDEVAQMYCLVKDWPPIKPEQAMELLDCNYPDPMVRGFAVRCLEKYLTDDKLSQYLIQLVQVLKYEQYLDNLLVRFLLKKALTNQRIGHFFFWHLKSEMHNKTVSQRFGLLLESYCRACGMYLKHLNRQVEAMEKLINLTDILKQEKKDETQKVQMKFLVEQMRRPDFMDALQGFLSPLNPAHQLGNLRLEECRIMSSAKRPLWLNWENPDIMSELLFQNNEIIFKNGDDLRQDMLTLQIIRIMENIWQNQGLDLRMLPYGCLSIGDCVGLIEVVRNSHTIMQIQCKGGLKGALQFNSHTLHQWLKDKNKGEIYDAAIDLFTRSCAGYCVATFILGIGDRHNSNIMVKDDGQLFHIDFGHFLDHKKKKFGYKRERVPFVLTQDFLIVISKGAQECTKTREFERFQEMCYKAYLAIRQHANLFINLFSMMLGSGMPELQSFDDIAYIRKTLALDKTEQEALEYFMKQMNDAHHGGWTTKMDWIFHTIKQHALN
p110α/p85α, sequence (P27986 whole entry partner): as the sequence (P27986 whole entry partner) above
Settings: not given
As for the experimental part:
as §1, §2
(In general: TR-FRET usually uses a lanthanide donor and a delayed reading to cut background.)
For `Nc1ncnc2c1c(-c1ccc(O)nc1)nn2Cc1cc2ccccc2nc1-c1ccccc1F` [Compound 161], the IC50 is above 1000 nM.

`NC1=NC=NC2C1C(c1ccc(O)nc1)=NN2Cc1cc2ccccc2nc1-c1ccccc1` (stereo not drawn) [Compound 162]: the IC50 was above 1000 nM.

`CC(C)N1CCN(c2nc3ccccc3cc2Cn2nc(-c3ccc4nc(N)sc4c3)c3c(N)ncnc32)CC1` [Compound 164] had an IC50 below 100 nM.

In turn, `CC(=O)Nc1nc2ccc(-c3nn(Cc4cc5ccccc5nc4N4CCCC4)c4ncnc(N)c34)cc2s1` [Compound 24] yielded an IC50 of 100 to 1000 nM.

In turn, `Nc1ncnc2c1c(-c1ccnc(O)c1)nn2Cc1cc2ccccc2nc1-c1ccccc1` [Compound 178] showed an IC50 above 1000 nM.

For the compound `Nc1ncnc2c1c(-c1ccnc(O)c1)nn2Cc1cc2ccccc2nc1-c1ccccc1F` [Compound 177], the IC50 is above 1000 nM.

The compound `CC(=O)Nc1nc2ccc(-c3nn(Cc4cc5ccccc5nc4N4CCN(C(C)C)CC4)c4ncnc(N)c34)cc2s1` [Compound 163] returned a 50% inhibitory concentration (IC50) of 100 to 1000 nM.

In the case of `CC1CCCN1c1nc2ccccc2cc1Cn1ncc2c(N)ncnc21` (stereo not drawn) [Compound 188], the concentration for half-maximal inhibition (IC50) was above 1000 nM.

The next assay concerns the target p110β/p85α (Homo sapiens, UniProt P42338). The assay can be described thus: PI3K β inhibition assay (TLC lipid kinase or HTRF). In kind it is biochemical. The note with it: read-out: PI3K β IC50. As for the experimental part:
as §1, §2
For `Nc1ncnc2c1c(-c1ccc(O)nc1)nn2Cc1cc2ccccc2nc1-c1ccccc1F` [Compound 161], the IC50 is above 1000 nM.

As for `NC1=NC=NC2C1C(c1ccc(O)nc1)=NN2Cc1cc2ccccc2nc1-c1ccccc1` (stereo not drawn) [Compound 162], the IC50 was above 1000 nM.

Turning to `CN1CCN(c2nc3ccccc3cc2Cn2nc(-c3cc(O)cc(F)c3)c3c(N)ncnc32)CC1` [Compound 197], the IC50 lay within 100 to 1000 nM.

Turning to `Nc1ncnc2c1c(-c1cc(O)cc(F)c1)nn2Cc1cc2ccccc2nc1-c1ccccc1` [Compound 149], the concentration for half-maximal inhibition (IC50) is above 1000 nM.

Turning to `CC(C)N1CCN(c2nc3ccccc3cc2Cn2nc(-c3ccc4nc(N)sc4c3)c3c(N)ncnc32)CC1` [Compound 164], the IC50 is below 100 nM.

In the case of `Nc1ncnc2c1c(-c1ccnc(O)c1)nn2Cc1cc2ccccc2nc1-c1ccccc1` [Compound 178], the half-inhibitory concentration (IC50) was above 1000 nM.

As to `Nc1ncnc2c1c(-c1ccnc(O)c1)nn2Cc1cc2ccccc2nc1-c1ccccc1F` [Compound 177], the IC50 is above 1000 nM.

As to `CC(=O)Nc1nc2ccc(-c3nn(Cc4cc5ccccc5nc4N4CCN(C(C)C)CC4)c4ncnc(N)c34)cc2s1` [Compound 163], the IC50 is below 100 nM.

For the compound `CC1CCCN1c1nc2ccccc2cc1Cn1ncc2c(N)ncnc21` (stereo not drawn) [Compound 188], the IC50 is above 1000 nM.

Another assay concerns the target p110γ (Homo sapiens (Human), UniProt P48736). The assay can be described thus: PI3K γ inhibition assay (TLC lipid kinase or HTRF). The assay is classed as biochemical.
Settings: not given
As for the experimental part:
as §1, §2
In the case of `CCC(c1cc2ccccc2nc1N1CCCC1)n1cnc2c(N)ncnc21` (stereo not drawn) [Compound 36], the IC50 was above 1000 nM.

Consider `Nc1ncnc2c1c(-c1cccc3[nH]ncc13)nn2Cc1cc2ccccc2nc1N1CCCC1` [Compound 58], for which the IC50 lay in the range of 100 to 1000 nM.

Turning to `C[C@@H](O)C#Cc1nc2ccccc2nc1Cn1nc(C#C[C@@H](C)O)c2c(N)ncnc21` [Compound 103], the IC50 is above 1000 nM.

`CN1CCN(c2nc3ccccc3cc2Cn2nc(I)c3c(N)ncnc32)CC1` [Compound 44] came in with an IC50 above 1000 nM.

`CC(c1cc2ccccc2nc1N1CCCC1)n1cnc2c(N)ncnc21` (stereo not drawn) [Compound 35] yielded an IC50 above 1000 nM.

Turning to `CCC(Nc1ncnc2[nH]cnc12)c1cc2ccccc2nc1N1CCCC1` (stereo not drawn) [Compound 53], the IC50 is above 1000 nM.
